# According to publication PMC5439695 (PLoS ONE, 2017):
# Read-outs that look alike come from different tables or passages of the source.
# Tests used:
# [1] = tested on: HEK293 and HepG2 cell lines
# NRF2 = settings: Tox21 assay; cited from earlier work
SMILES,cytotoxicity kinetics activity profile in the four real-time cytotoxicity assays [1],Nrf2 TF activity (in words) (NRF2),cytotoxicity kinetics activity profile in the four real-time cytotoxicity assays ([1]; human)
"CC12CC1(C)C(=O)N(c1cc(Cl)cc(Cl)c1)C2=O (centres unmarked) [procymidone, reference compound]",no activity in all four real-time cytotoxicity assays,Weak Nrf2 activity,
"CC(C)(O)C(=O)Nc1ccc([N+](=O)[O-])c(C(F)(F)F)c1 [Hydroxyflutamide, reference compound]",,increased Nrf2 TF activity,active only in HEK293[glo]
"CC/C(=C(/CC)c1ccc(O)cc1)c1ccc(O)cc1 [Diethylstilbestrol, reference compound]",,increased Nrf2 TF activity,active only in HEK293[glo]
"CC(C)C(=O)Nc1ccc([N+](=O)[O-])c(C(F)(F)F)c1 [Flutamide, reference compound]",,increased Nrf2 TF activity,active only in HEK293[glo]
